Assay type in all cases: in vivo, mice
The subject of one assay is IFNγ+CD8+ T cells. In words: Flow cytometry of IFNγ+CD8+ T cells in serum, B16F10 model. The method, then:
To stain the intracellular marker, e.g., IFN-γ, cells were pre-stimulated with cell stimulation cocktail (eBioscience, cat. no. 00-4970-93) for 4-6 h, fixed and permeabilized using fixation/permeabilization solution kit (BD, cat. no. 554714), and then stained with both anti-IFN-γ and other surface antibodies. […] Flow cytometry data were acquired on an LSRFortessa cell analyzer (BD) and analyzed using FlowJo software.
To study whether activation of STING in the TME triggers systemic antitumor immunity, mouse serum was collected from the antitumor efficacy study of B16F10 melanoma model (FIG. 3D) 21 and 28 days after tumor inoculation and analyzed by flow cytometry. cGAMP-MPs and 4×cGAMP-S treatments increased 5.1- and 4.9-fold of IFNγ+CD8+ T cells in serum at day 21 compared to the untreated group (FIG. 5A). […]
(In general: A flow cytometer gives signals particle by particle.)

The next assay concerns B16F10 tumor recurrence. In words: Treatment of surgically removed B16F10 tumor and re-challenge. An excerpt: 2×10^5 B16F10 cells were subcutaneously injected to the right rear flank of C57BL/6 female mice. Six days after tumor inoculation, B16F10 tumor-bearing mice were randomly divided into 4 experimental groups (n=8 for each group): untreated, 1×cGAMP-S plus EPs, 3×cGAMP-S, and 1×cGAMP-S plus cGAMP-MPs, respectively. ˜99% of tumor volume was surgically removed, leaving ˜1% residual tumor to mimic residual microtumors. Upon the removal of tumors, cGAMP-MPs (10m of cGAMP-S, 5 PLGA-1 microdevices containing 10 μg of cGAMP, and 5 PLGA-2 microdevices containing 10 μg of cGAMP) or 1×cGAMP-S plus EPs (10m of cGAMP-S, 5 each of empty PLGA-1 and PLGA-2 microdevices) in 50 μL MC solution were directly applied to the surgical bed through a micropipette. For 3×cGAMP-S treated group, 10 μg of cGAMP-S was applied to the surgical bed after surgery followed by intratumoral injections of 10 μg of cGAMP at days 4 and 8 post-surgery (FIG. 6A). The wound was closed by an autoclip wound clip system. Tumor size was measured with a digital caliper every other day starting at day 7 post tumor inoculation. For the re-challenge experiment, 2×10^5 B16F10 cells were subcutaneously injected to the left rear flank of treated mice with complete responses. Tumor size was measured every other day with a digital caliper.

For the next assay, the system named is CXCL10 mRNA. The assay is described as follows: qPCR of interferon-stimulated genes in B16F10 tumors. The note with it: tumors at day 16; cGAMP-MPs single injection, cGAMP-S three injections. The method, then:
(§1) Mice bearing B16F10 tumors were treated with the following 4 experimental groups (n=8): untreated, 1×EPs, 3×cGAMP-S, and 1×cGAMP-S plus cGAMP-MPs, respectively (FIG. 4A). Tumors were collected at day 16 post tumor inoculation and cut into 50-100 mg small pieces in a 1.5 mL microcentrifuge tube. The tumors were lysed in radioimmunoprecipitation assay (RIPA) buffer (Sigma-Aldrich), homogenized, and centrifuged at 20130 rcf for 10 min. The protein content in the supernatant was quantified using a bicinchoninic acid protein assay kit (Thermo Fisher Scientific, MA, USA). Equal amounts of proteins (20 μg) were separated on a 4 to 15% gradient SDS-polyacrylamide gel (Bio-Rad, Hercules, CA) and electro-transferred to nitrocellulose membrane. The membranes were then blocked with 5% milk in tris-buffered saline supplemented with 0.05% Tween 20 and further incubated with GAPDH monoclonal antibody (Invitrogen, CA, cat. no. MA5-27912), phospho-TBK1/NAK (Ser172) (D52C2) Rabbit mAb (Cell Signaling Technology, cat. no. 5483S), or phospho-IRF-3 (S396) Rabbit mAb (Cell Signaling Technology, cat. no. 4947S) at 4° C. overnight. […]
(§2) For q-PCR experiments, total RNAs were extracted from tumors by RNeasy Kit (Qiagen, Inc.) according to manufacturer's protocol. […] Samples were analyzed in triplicates.
(In general: In qPCR the cycle at which signal appears reflects the starting amount.)

Another assay has as its system IRF7 mRNA. The assay is described as above. The note with it: tumors at day 16; cGAMP-MPs single injection, cGAMP-S three injections. The method, then:
as §1, §2

As for `Nc1nc2c(ncn2[C@@H]2O[C@@H]3COP(=O)(O)O[C@H]4[C@@H](O)[C@H](n5cnc6c(N)ncnc65)O[C@@H]4COP(=O)(O)O[C@H]3[C@H]2O)c(=O)[nH]1` [cGAMP-S, 3′3′-cGAMP], the “increase of IFNγ+CD8+ T cells in serum compared to untreated” value in the assay with IFNγ+CD8+ T cells (day 21, cGAMP-MPs single injection, cGAMP-S four injections) worked out at 4.9 fold. The “number of IFNγ+CD8+ T cells in serum” value in the assay on IFNγ+CD8+ T cells (day 28 versus day 21) is listed as “remained at an identical level”. The tumor recurrence rate in the assay on B16F10 tumor recurrence (cGAMP-MPs single application, cGAMP-S three doses, untreated 100%) turned out to be 25%; in the assay on B16F10 tumor recurrence (single dose of cGAMP-S plus EPs) it was 87.5%. Moreover, the survival after re-challenge entry in the assay with B16F10 tumor recurrence (tumor-free mice re-challenged with B16F10 cells) is listed as “prolonged survival time”. Also, the “tumor growth after re-challenge versus naïve mice” value in the assay on B16F10 tumor recurrence (tumor-free mice re-challenged with B16F10 cells at day 60) was “significantly slower”. The “CXCL10 mRNA level, fold over untreated” value in the assay on CXCL10 mRNA is 7.2 fold. In the assay on IRF7 mRNA, the “IRF7 mRNA level, fold over untreated” value amounted to 66.5 fold.

For the origin of these results see patent US12390537B2, “Compositions of polymeric microdevices and methods of use thereof in cancer immunotherapy” (Massachusetts Institute of Technology, priority 2020, dated 2025).
